Values quoted from earlier work as cited in patent US20210161190A1, “CORE BODY TEMPERATURE REDUCING AGENT, FOOD PRODUCT, AND SLEEP IMPROVING AGENT” (JAPAN TOBACCO INC., priority 2018, published 2021).

What was measured:
[1] = system: mouse models of sleep disorder caused by imposed stress
[2] = intake of glycine
[3] = stress-imposed mouse models, continuous administration 350 to 3000 mg/kg of body weight per day

| SMILES | circadian variation in core body temperature ([1]; mice without imposed stress) | REM sleep [1, 3] | non-REM sleep [1, 3] | core body temperature after intake [2] | percentage of Non-REM sleep [2] |
| --- | --- | --- | --- | --- | --- |
| O=C[C@H](O)[C@H](O)[C@H](O)CO [D-ribose] | hardly affected | suppressed reduction in REM sleep | promoted increases in non-REM sleep | – | – |
| NCC(=O)O [glycine] | – | – | – | reduces core body temperature | improves the percentage of Non-REM sleep |
